Test results published in patent publication US8871753B2, “Macrocyclic compounds and their use as kinase inhibitors” (Incyte Corporation, priority 2008, dated 2014).
Counter-ions that a name gives are not always drawn. Like-named read-outs stand apart in the source and are kept apart here.

Tests used:
Type in all cases: biochemical
[1] = biological target: T1, human JAK1 (a.a. 837-1142) (Homo sapiens, UniProt P23458); experiment: In vitro JAK kinase assay (HTRF, phosphorylation of a biotinylated peptide), JAK1
T1 construct: human JAK1 (a.a. 837-1142); His tag (N); made in house; host or cells: insect cells (baculovirus)
Outline: (§1)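 Kinase activity was measured as phosphorylation of a biotinylated peptide, with ATP at 90 μM for JAK1, 30 μM for JAK2 and 3 μM for JAK3. Reactions ran 1 hr at room temperature, were stopped with EDTA plus SA-APC and Eu-Py20, and were read by HTRF after 40 minutes of antibody binding.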

[2] = biological target: TYK2 (Homo sapiens, UniProt P29597); experiment: TYK2 kinase inhibition (Table A1)
[3] = biological target: T2, human JAK2 (a.a. 828-1132) (Homo sapiens, UniProt O60674); experiment: In vitro JAK kinase assay (HTRF, phosphorylation of a biotinylated peptide), JAK2
T2 construct: JAK2 (a.a. 828-1132); His tag (N); made in house; host or cells: insect cells (baculovirus)
Outline: as §1

[4] = biological target: T3, human JAK3 (a.a. 781-1124) (Homo sapiens, UniProt P52333); experiment: In vitro JAK kinase assay (HTRF, phosphorylation of a biotinylated peptide), JAK3
T3 construct: JAK3 (a.a. 781-1124); His tag (N); made in house; host or cells: insect cells (baculovirus)
Protocol: The catalytic activity of JAK1, JAK2 or JAK3 was assayed by measuring the phosphorylation of a biotinylated peptide. The phosphorylated peptide was detected by homogenous time resolved fluorescence (HTRF). […] The ATP concentration in the reactions was 90 μM for JAK1, 30 μM for JAK2 and 3 μM for JAK3. Reactions were carried out at room temperature for 1 hr and then stopped with 20 μL 45 mM EDTA, 300 nM SA-APC, 6 nM Eu-Py20 in assay buffer (Perkin Elmer, Boston, Mass.). Binding to the Europium labeled antibody took place for 40 minutes and HTRF signal was measured on a Fusion plate reader (Perkin Elmer, Boston, Mass.).
The catalytic activity of JAK1, JAK2 or JAK3 was assayed by measuring the phosphorylation of a biotinylated peptide. The phosphorylated peptide was detected by homogenous time resolved fluorescence (HTRF). […] Reactions were carried out at room temperature for 1 hr and then stopped with 20 μL 45 mM EDTA, 300 nM SA-APC, 6 nM Eu-Py20 in assay buffer (Perkin Elmer, Boston, Mass.). Binding to the Europium labeled antibody took place for 40 minutes and HTRF signal was measured on a Fusion plate reader (Perkin Elmer, Boston, Mass.).

T3 sequence (P52333 781-1124): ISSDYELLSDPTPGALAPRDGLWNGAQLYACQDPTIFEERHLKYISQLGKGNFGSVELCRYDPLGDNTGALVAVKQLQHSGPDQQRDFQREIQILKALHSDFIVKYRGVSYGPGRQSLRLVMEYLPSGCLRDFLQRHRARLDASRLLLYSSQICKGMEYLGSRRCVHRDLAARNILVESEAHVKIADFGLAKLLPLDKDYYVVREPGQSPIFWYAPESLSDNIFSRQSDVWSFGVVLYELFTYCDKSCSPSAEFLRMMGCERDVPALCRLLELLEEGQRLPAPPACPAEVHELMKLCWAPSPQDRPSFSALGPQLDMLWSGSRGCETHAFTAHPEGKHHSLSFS
T1 sequence (P23458 849-1154): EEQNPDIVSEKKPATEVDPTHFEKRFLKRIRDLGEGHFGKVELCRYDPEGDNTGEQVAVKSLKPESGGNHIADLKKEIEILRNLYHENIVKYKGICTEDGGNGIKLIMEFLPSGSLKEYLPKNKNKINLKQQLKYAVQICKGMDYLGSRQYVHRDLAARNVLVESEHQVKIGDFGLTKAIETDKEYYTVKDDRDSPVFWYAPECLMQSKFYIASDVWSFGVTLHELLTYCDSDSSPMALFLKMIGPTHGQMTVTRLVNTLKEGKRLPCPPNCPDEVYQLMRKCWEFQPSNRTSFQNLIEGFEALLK
T2 sequence (O60674 828-1132): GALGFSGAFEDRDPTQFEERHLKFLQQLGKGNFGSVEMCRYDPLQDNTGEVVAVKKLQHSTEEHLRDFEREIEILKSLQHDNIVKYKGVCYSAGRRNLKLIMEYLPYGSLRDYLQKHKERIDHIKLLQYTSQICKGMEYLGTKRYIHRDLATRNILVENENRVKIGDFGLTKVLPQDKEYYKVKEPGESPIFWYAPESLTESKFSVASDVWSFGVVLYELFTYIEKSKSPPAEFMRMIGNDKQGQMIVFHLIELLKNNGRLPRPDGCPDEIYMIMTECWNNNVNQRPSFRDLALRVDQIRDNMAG
TYK2, sequence (P29597 whole entry): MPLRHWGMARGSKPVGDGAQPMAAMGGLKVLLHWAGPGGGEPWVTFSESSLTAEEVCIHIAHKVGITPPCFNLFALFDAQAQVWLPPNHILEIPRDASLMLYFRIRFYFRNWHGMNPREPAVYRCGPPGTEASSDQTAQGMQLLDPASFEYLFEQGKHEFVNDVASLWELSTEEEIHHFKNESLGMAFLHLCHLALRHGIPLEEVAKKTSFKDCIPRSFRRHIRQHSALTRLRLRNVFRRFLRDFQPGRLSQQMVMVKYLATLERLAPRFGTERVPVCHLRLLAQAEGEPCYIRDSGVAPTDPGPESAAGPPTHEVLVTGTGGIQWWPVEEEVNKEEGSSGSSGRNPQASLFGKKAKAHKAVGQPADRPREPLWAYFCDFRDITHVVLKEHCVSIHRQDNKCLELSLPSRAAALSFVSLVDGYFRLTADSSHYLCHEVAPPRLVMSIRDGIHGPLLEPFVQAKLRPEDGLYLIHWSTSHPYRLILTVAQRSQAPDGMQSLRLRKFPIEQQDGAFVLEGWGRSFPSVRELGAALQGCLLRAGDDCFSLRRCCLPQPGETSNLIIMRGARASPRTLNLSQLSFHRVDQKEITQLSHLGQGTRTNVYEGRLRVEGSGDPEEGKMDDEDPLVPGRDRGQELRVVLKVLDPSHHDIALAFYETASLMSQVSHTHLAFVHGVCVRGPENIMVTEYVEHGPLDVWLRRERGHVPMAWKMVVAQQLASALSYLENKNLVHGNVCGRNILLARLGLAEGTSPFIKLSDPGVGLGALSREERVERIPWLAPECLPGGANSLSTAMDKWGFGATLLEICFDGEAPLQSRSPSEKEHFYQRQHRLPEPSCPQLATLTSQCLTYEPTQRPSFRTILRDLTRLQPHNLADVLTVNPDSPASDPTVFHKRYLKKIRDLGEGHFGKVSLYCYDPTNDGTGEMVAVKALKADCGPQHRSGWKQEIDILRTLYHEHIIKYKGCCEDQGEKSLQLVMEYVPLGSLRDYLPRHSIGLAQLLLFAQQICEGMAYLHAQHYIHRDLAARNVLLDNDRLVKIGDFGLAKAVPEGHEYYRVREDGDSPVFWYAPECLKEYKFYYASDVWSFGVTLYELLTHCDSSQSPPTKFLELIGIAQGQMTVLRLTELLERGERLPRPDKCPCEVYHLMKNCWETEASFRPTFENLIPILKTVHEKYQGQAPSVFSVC

Row | Structure (SMILES) | IC50 ([1]; Table D1, read-out: JAK1 IC50) | IC50 ([2]; Table D1) | IC50 ([3]; Table D1) | IC50 ([4]; Table D1) | IC50 ([1]; read-out: JAK1 IC50) | IC50 [2] | IC50 [3] | IC50 [4] | IC50 ([1]; JAK1 IC50 (nM), Table D1)
1 | Cc1csc(NC(=O)N2CCC(CCOc3ccc4cc3CCc3cncc(c3)Nc3ncc(Cl)c(n3)N4)CC2)c1 [Example D172, 4-(2-{[6-Chloro-2,4,8,18,22-pentaazatetracyclo[14.3.1.1(3,7).1(9,13)]docosa-1(20),3(22),4,6,9(21),10,12,16,18-nonaen-12-yl]oxy}ethyl)-N-(4-methyl-2-thienyl)piperidine-1-carboxamide bis(trifluoroacetate)] | 130 nM | > 400 nM | > 400 nM | > 400 nM |  |  |  |  | 
2 | O=C(COc1ccc2cc1CCc1cncc(c1)Nc1ncc(Cl)c(n1)N2)N1CCNCC1 [Example D229, 6-Chloro-12-(2-oxo-2-piperazin-1-ylethoxy)-2,4,8,18,22-pentaazatetracyclo[14.3.1.1(3,7).1(9,13)]docosa-1(20),3(22),4,6,9(21),10,12,16,18-nonaene tris(trifluoroacetate)] | 153 nM | > 400 nM | 235 nM | > 400 nM |  |  |  |  | 
3 | O=C(Cn1c(=O)oc2c3cc(cc21)Nc1nc(ncc1Cl)Nc1cccc(c1)CC3)N1CCOCC1 [Example D187, 4-Chloro-20-(2-morpholin-4-yl-2-oxoethyl)-18-oxa-2,6,8,20,25-pentaazapentacyclo[14.6.1.1(3,7).1(9,13).0(17,21)]pentacosa-1(23),3(25),4,6,9(24),10,12,16,21-nonaen-19-one trifluoroacetate] | 200 nM | > 1000 nM | 185 nM | 130 nM |  |  |  |  | 
4 | Cc1nc(CC(=O)Nc2ccc3cc2CCc2cccc(c2)Nc2ncc(Cl)c(n2)N3)c(C)s1 [Example C46, N-[6-Chloro-2,4,8,22-tetraazatetracyclo[14.3.1.1(3,7).1(9,13)]docosa-1(20),3(22),4,6,9(21),10,12,16,18-nonaen-12-yl]-2-(2,5-dimethyl-1,3-thiazol-4-yl)acetamide trifluoroacetate] |  |  |  |  | 79 nM | 165 nM | 170 nM | 1490 nM | 
5 | CC(=O)N1CCC(CCOc2ccc3cc2CCc2cncc(c2)Nc2ncc(Cl)c(n2)N3)CC1 [Example D161, 12-[2-(1-Acetylpiperidin-4-yl)ethoxy]-6-chloro-2,4,8,18,22-pentaazatetracyclo[14.3.1.1(3,7).1(9,13)]docosa-1(20),3(22),4,6,9(21),10,12,16,18-nonaene bis(trifluoroacetate)] |  | > 400 nM | 276 nM | > 400 nM |  |  |  |  | 85 nM
6 | O=C(COc1ccc2cc1CCc1cncc(c1)Nc1ncc(Cl)c(n1)N2)N1CCN(Cc2ccncc2)CC1 [Example D256, 6-Chloro-12-{2-oxo-2-[4-(pyridin-4-ylmethyl)piperazin-1-yl]ethoxy}-2,4,8,18,22-pentaazatetracyclo[14.3.1.1(3,7).1(9,13)]docosa-1(20),3(22),4,6,9(21),10,12,16,18-nonaene tris(trifluoroacetate)] | 150 nM | > 400 nM | 217 nM | > 400 nM |  |  |  |  | 
7 | O=C(Nc1ccc(C(F)(F)F)cc1)N1CCN(c2ccc3cc2CCc2cccc(c2)Nc2ncc(Cl)c(n2)N3)CC1 [Example D90, 4-[6-Chloro-2,4,8,22-tetraazatetracyclo[14.3.1.1(3,7).1(9,13)]docosa-1(20),3(22),4,6,9(21),10,12,16,18-nonaen-12-yl]-N-[4-(trifluoromethyl)phenyl]piperazine-1-carboxamide bis(trifluoroacetate)] | 127 nM | 70 nM | 23 nM | 108 nM |  |  |  |  | 

Continued by falling IC50 ([1]; Table D1, read-out: JAK1 IC50), values first:

Row | IC50 ([1]; Table D1, read-out: JAK1 IC50) | IC50 ([2]; Table D1) | IC50 ([3]; Table D1) | IC50 ([4]; Table D1) | IC50 ([1]; read-out: JAK1 IC50) | IC50 [2] | IC50 [3] | IC50 [4] | Structure (SMILES) | IC50 ([1]; JAK1 IC50 (nM), Table D1)
8 | 100 nM | > 400 nM | > 400 nM | > 400 nM |  |  |  |  | O=C(COc1ccc2cc1CCc1cncc(c1)Nc1ncc(Cl)c(n1)N2)N1CCN(c2ncccn2)CC1 [Example D233, 6-Chloro-12-[2-oxo-2-(4-pyrimidin-2-ylpiperazin-1-yl)ethoxy]-2,4,8,18,22-pentaazatetracyclo[14.3.1.1(3,7).1(9,13)]docosa-1(20),3(22),4,6,9(21),10,12,16,18-nonaene tris(trifluoroacetate)] | 
9 | 72 nM | > 400 nM | 148 nM | > 400 nM |  |  |  |  | CC(=O)N1CCC(COc2ccc3cc2CCc2cncc(c2)Nc2ncc(Cl)c(n2)N3)CC1 [Example D227, 12-[(1-Acetylpiperidin-4-yl)methoxy]-6-chloro-2,4,8,18,22-pentaazatetracyclo[14.3.1.1(3,7).1(9,13)]docosa-1(20),3(22),4,6,9(21),10,12,16,18-nonaene bis(trifluoroacetate)] | 
10 | 30 nM | > 400 nM | 150 nM | > 400 nM |  |  |  |  | O=C(CC1CN(c2ccccn2)C1)Nc1ccc2cc1CCc1cncc(c1)Nc1ncc(Cl)c(n1)N2 [Example D153, N-[6-Chloro-2,4,8,18,22-pentaazatetracyclo[14.3.1.1(3,7).1(9,13)]docosa-1(20),3(22),4,6,9(21),10,12,16,18-nonaen-12-yl]-2-(1-pyridin-2-ylazetidin-3-yl)acetamide tris(trifluoroacetate)] | 
11 | 29 nM | > 400 nM | 180 nM | > 400 nM |  |  |  |  | Cc1ccnc(N2CCN(C(=O)COc3ccc4cc3CCc3cncc(c3)Nc3ncc(Cl)c(n3)N4)CC2)c1 [Example D237, 6-Chloro-12-{2-[4-(4-methylpyridin-2-yl)piperazin-1-yl]-2-oxoethoxy}-2,4,8,18,22-pentaazatetracyclo[14.3.1.1(3,7).1(9,13)]docosa-1(20),3(22),4,6,9(21),10,12,16,18-nonaene tris(trifluoroacetate)] | 
12 | 26 nM | 401 nM | 85 nM | > 1000 nM |  |  |  |  | O=C(CC1CN(C(=O)c2nc[nH]n2)C1)Nc1ccc2cc1CCc1cncc(c1)Nc1ncc(Cl)c(n1)N2 [Example D147, N-[6-Chloro-2,4,8,18,22-pentaazatetracyclo[14.3.1.1(3,7).1(9,13)]docosa-1(20),3(22),4,6,9(21),10,12,16,18-nonaen-12-yl]-2-[1-(1H-1,2,4-triazol-3-ylcarbonyl)azetidin-3-yl]acetamide bis(trifluoroacetate)] | 
13 | 23 nM | 265 nM | 80 nM | > 400 nM |  |  |  |  | NC(=O)N1CCN(C(=O)COc2ccc3cc2CCc2cncc(c2)Nc2ncc(Cl)c(n2)N3)CC1 [Example D270, 4-({[6-Chloro-2,4,8,18,22-pentaazatetracyclo[14.3.1.1(3,7).1(9,13)]docosa-1(20),3(22),4,6,9(21),10,12,16,18-nonaen-12-yl]oxy}acetyl)piperazine-1-carboxamide bis(trifluoroacetate)] | 
14 | 19 nM | 35 nM | 10 nM | 29 nM |  |  |  |  | CC(=O)N1CCC[C@H](CC(=O)Nc2ccc3cc2CCc2cccc(c2)Nc2ncc(Cl)c(n2)N3)C1 [Example D201, 2-[(3R)-1-Acetylpiperidin-3-yl]-N-[6-chloro-2,4,8,22-tetraazatetracyclo[14.3.1.1(3,7).1(9,13)]docosa-1(20),3(22),4,6,9(21),10,12,16,18-nonaen-12-yl]acetamide trifluoroacetate] | 
15 | 14 nM | 38 nM | 40 nM | > 400 nM |  |  |  |  | O=C(c1ccc(F)cc1F)N1CCC(CCNc2ccc3cc2CCc2cncc(c2)Nc2ncc(Cl)c(n2)N3)CC1 [Example D220, 6-Chloro-N-{2-[1-(2,4-difluorobenzoyl)piperidin-4-yl]ethyl}-2,4,8,18,22-pentaazatetracyclo[14.3.1.1(3,7).1(9,13)]docosa-1(20),3(22),4,6,9(21),10,12,16,18-nonaen-12-amine tris(trifluoroacetate)] | 
16 | 10 nM | > 400 nM | 71 nM | > 400 nM |  |  |  |  | O=C(Nc1ccccc1)N1CCC(CCOc2ccc3cc2CCc2cncc(c2)Nc2ncc(Cl)c(n2)N3)CC1 [Example D162, 4-(2-{[6-Chloro-2,4,8,18,22-pentaazatetracyclo[14.3.1.1(3,7).1(9,13)]docosa-1(20),3(22),4,6,9(21),10,12,16,18-nonaen-12-yl]oxy}ethyl)-N-phenylpiperidine-1-carboxamide bis(trifluoroacetate)] | 
17 | 7.1 nM | 25 nM | 15 nM | 107 nM |  |  |  |  | CC(=O)N1CCC[C@H](CC(=O)Nc2ccc3cc2CCc2cncc(c2)Nc2ncc(Cl)c(n2)N3)C1 [Example D205, 2-[(3R)-1-Acetylpiperidin-3-yl]-N-[6-chloro-2,4,8,18,22-pentaazatetracyclo[14.3.1.1(3,7).1(9,13)]docosa-1(20),3(22),4,6,9(21),10,12,16,18-nonaen-12-yl]acetamide bis(trifluoroacetate)] | 
